By GI50 is commonly meant the concentration at which growth is held to half of that of the control.

Like-named read-outs stand apart in the source and are kept apart here.

The test system of one test is UACC-62. Kind of test: NCI SRB growth inhibition (single dose 10 µM / five-dose). The format is cell-based, human. To be noted: Homo sapiens; for inhibition at 10 µM: UACC-62 (Melanoma), read-out: GI%; for GI50: UACC-62, Melanoma, five-dose. A digest of the protocol:
(§1)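 Growth inhibition is derived from seven absorbance readings per agent (Tz, C and five Ti). Where a parameter level is not reached or is exceeded, the value is given as greater or less than the highest or lowest concentration tested.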

Another test concerns SF-295. The test is described as above. The format is cell-based, human. The note with it: Homo sapiens; for inhibition at 10 µM: SF-295 (CNS cancer), read-out: GI%; for GI50: SF-295, CNS cancer, five-dose. A digest of the protocol:
as §1

For the next test, the system named is OVCAR-4. The test is described as above. The format is cell-based, human. To be noted: Homo sapiens; for inhibition at 10 µM: OVCAR-4 (Ovarian cancer), read-out: GI%; for GI50: OVCAR-4, Ovarian cancer, five-dose. A digest of the protocol: as §1
The subject of another test is HL-60(TB). Described as above. The format is cell-based, human. To be noted: Homo sapiens; for inhibition at 10 µM: HL-60(TB) (Leukemia), read-out: GI%; for GI50: HL-60(TB), Leukemia, five-dose. A digest of the protocol: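 TCA fixation ends the assay for adherent lines; unbound SRB is rinsed off five times with 1% acetic acid. Drug is added from a DMSO concentrate at 400× the maximum final concentration, made up to 2× in gentamicin-containing medium, then halved on addition to wells.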

Another test deals with LOX IMVI. The description is as above. The note with it: Homo sapiens; for inhibition at 10 µM: LOX IMVI (Melanoma), read-out: GI%; for GI50: LOX IMVI, Melanoma, five-dose. The format is cell-based, human. A digest of the protocol:
as §1

The subject of the next test is M14. The description is as above. The note with it: Homo sapiens; for inhibition at 10 µM: M14 (Melanoma), read-out: GI%; for GI50: M14, Melanoma, five-dose. The format is cell-based, human. A digest of the protocol:
as §1

A further test concerns DU-145. The test is described as above. The format is cell-based, human. The note with it: Homo sapiens; for inhibition at 10 µM: DU-145 (Prostate cancer), read-out: GI%; for GI50: DU-145, Prostate cancer, five-dose. A digest of the protocol: as §1
The next test has as its system CAKI-1. The test is described as above. The format is cell-based, human. The note with it: Homo sapiens; for inhibition at 10 µM: CAKI-1 (Renal cancer), read-out: GI%; for GI50: CAKI-1, Renal cancer, five-dose. A digest of the protocol: as §1
The next test addresses T1, VEGFR-2 (Homo sapiens, UniProt P35968).
T1 construct: purchased BPS Biosciences 40325
Briefly: VEGFR-2 kinase assay kit (BPS), Kinase-Glo Max luminescence. The format is biochemical. To be noted: VEGFR-2, single dose 10 µM, duplicate, mean ± SD. As to the method: 2. Biochemical kinase assay procedure
The inhibitory activity against different kinases was determined using kinase kits […]
from BPS Biosciences and kinase-Glo Max luminescence kinase assay kit (Promega).
The assay was carried out according to the protocol provided by the manufacturer. A stock solution of the synthesized derivatives in 100% DMSO was prepared. Subsequently, the compounds were diluted to 10% DMSO.
A master mixture was prepared according to the number of wells. For VEGFR-2 and FGFR-1 biochemical assays each well include 6 μl of 5x Kinase Buffer 1 + 1 μl of 500 μM ATP + 1 μl of PTK Substrate (Poly-Glu,Tyr 4:1) (10 mg/ml) + 17 μl of distilled water. For BRAF assay each well include 6 μl of 5x Kinase Buffer 1 + 1 μl of ATP (500 μM) + 10 μl of 5X Raf substrate + 8 μl of distilled water. 1x Kinase buffer 1 was prepared by mixing 600 μl of 5x Kinase Buffer 1 with 2400 μl water to give 3 mL. Kinases were thawed on ice and were diluted with 1x Kinase Buffer 1.
To start the biochemical reaction, 25 µL of the master mixture was added to each well in 96 well plate. 5 µL of 10% DMSO was added to positive control wells and blank wells. 5 µL of diluted inhibitor was added to each well labelled with the test inhibitor so that the final concentration of DMSO is 1% in all reactions. Then 20 µL of (1 ng / μl) in case of VEGFR-2 and FGFR-1 or (2.5 ng/μl) in case of BRAF in 1x kinase buffer was added to positive control wells and wells labelled with the inhibitor, while 20 µL 1x kinase buffer 1 was added to the […]
The plate was incubated at 30 °C for 45 min. Subsequently, 50 μl of Kinase-Glo Max luminescence reagent was added to each well and the plate was covered with aluminum foil and incubated at room temperature 15 min. Finally, the luminescence was recorded using multimode microplate reader. Kinase activity assays were performed in duplicate at each […]
The luminescence data were analyzed as follows. The difference between luminescence intensities in the absence of kinase (Lut) and in the presence of kinase (Luc) was defined as 100 % activity (Lut – Luc). Using luminescence signal (Lu) in the presence of the compound, % activity was calculated as: % activity = {(Lut - Lu)/(Lut - Luc)}×100%. The […]
concentration of the test compounds required to reduce the kinase activity by 50% was determined from dose-response curves and recorded as their IC50. […]
(In general: In Kinase-Glo more light means more ATP remaining.)

For test [1], the system named is NCI panel of 60 tumor cell lines. Kind of test: NCI SRB growth inhibition, whole panel mean (single dose 10 µM / five-dose). The format is cell-based, human. To be noted: Homo sapiens; for GI50: mean over NCI cancer cell lines, five-dose. How it is done:
Screening of cytotoxic activity against a panel of sixty human tumor cell lines The selected compounds by NCI were evaluated for their anticancer activity in a two- stage process. […] Then, the output from the single dose screen is reported as a mean graph. […] Assay protocol. […] For a typical screening experiment, cells are inoculated into 96 well microtiter plates in 100 µL at plating densities ranging from 5000 to 40,000 cells/well depending on the doubling time of individual cell lines. […] After 24 h, two plates of each cell line are fixed in situ with TCA, to represent a measurement of the cell population for each cell line at the time of drug addition (Tz). The experimental drugs are solubilized in dimethyl sulfoxide at 400-fold the desired final maximum test concentration and stored frozen prior to use. At the time of drug addition, an aliquot of frozen concentrate is thawed and diluted to twice the desired final maximum test concentration with complete medium containing 50 µg/mL gentamicin. Additional four, 10-fold or ½ log serial dilutions are made to provide a total of five drug concentrations plus control. Aliquots of 100 mL of these different drug dilutions are added to the appropriate microtiter wells already containing […] of medium, resulting in the required final drug concentrations. […] For adherent cells, the assay is terminated by the addition of cold TCA. […] The supernatant is discarded, and the plates are washed five times with tap water and air dried. Sulforhodamine B (SRB) solution ([…]) at 0.4% (w/v) in 1% acetic acid is added to each well, and plates are incubated for 10 min at room temperature. After staining, unbound dye is removed by washing five times with 1% acetic acid and the plates are air dried. […] Using the seven absorbance measurements [time zero, (Tz), control growth, (C), and test growth in the presence of drug at the five concentration levels (Ti)], the percentage growth is calculated at each of the drug concentrations levels. Percentage growth inhibition is calculated as: [(Ti Tz)/(C–Tz)] x 100 for concentrations for which Ti>/=Tz and [(Ti-Tz)/Tz] x 100 for concentrations for which Ti < Tz. Three dose response parameters are calculated for each experimental agent. […] The drug concentration resulting in total growth inhibition (TGI) is calculated from Ti = Tz. […] Values are calculated for each of these three parameters if the level of activity is reached; however, if the effect is not reached or is exceeded, the value for that parameter is expressed as greater or less than the maximum or minimum concentration tested.

Setting [2] is: mean over NCI 60 cell lines, > 100% = lethal effect, read-out: mean growth inhibition % (GI%).
[3] abbreviates: mean over NCI panel of 60 tumor cell lines, read-out: Mean growth inhibition %.

T1 sequence (P35968 20-1356): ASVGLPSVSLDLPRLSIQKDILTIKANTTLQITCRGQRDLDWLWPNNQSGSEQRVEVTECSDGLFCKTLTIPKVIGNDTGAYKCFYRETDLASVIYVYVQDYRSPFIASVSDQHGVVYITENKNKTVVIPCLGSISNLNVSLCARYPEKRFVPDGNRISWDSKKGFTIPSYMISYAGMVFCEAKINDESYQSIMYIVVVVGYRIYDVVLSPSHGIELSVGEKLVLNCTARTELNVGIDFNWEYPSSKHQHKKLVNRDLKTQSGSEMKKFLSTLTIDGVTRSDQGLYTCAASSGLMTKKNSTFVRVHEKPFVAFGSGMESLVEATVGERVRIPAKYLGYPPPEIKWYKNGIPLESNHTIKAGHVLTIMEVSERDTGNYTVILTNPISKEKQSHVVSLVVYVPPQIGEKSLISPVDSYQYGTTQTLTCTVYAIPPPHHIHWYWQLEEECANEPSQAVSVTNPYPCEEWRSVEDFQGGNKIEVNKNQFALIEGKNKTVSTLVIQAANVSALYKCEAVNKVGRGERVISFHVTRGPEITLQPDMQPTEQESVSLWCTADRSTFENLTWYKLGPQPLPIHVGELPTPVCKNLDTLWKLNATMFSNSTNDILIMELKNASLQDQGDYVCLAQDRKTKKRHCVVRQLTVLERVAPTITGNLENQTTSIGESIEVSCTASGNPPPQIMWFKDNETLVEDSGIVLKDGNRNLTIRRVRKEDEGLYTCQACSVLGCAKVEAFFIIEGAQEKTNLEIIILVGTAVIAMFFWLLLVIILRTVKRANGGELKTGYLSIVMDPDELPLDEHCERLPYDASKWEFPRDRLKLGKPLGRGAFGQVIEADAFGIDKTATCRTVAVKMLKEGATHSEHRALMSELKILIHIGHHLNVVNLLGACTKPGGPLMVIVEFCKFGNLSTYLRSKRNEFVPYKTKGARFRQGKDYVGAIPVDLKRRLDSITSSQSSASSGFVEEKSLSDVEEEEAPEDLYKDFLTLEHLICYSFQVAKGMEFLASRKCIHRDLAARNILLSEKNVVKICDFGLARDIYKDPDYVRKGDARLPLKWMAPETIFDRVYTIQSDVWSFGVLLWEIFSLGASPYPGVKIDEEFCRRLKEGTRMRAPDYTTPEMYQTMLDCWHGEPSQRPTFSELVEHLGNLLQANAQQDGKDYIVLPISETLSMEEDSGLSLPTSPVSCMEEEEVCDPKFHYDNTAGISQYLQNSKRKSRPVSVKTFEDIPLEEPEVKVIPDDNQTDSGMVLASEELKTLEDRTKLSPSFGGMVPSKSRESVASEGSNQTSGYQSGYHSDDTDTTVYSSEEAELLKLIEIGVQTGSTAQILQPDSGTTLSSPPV

Take `COc1ccc(-c2nc3cc(C(=O)NN=Cc4ccccc4O)ccc3[nH]2)cc1` [8h, N'-(2-Hydroxybenzylidene)-2-(4-methoxyphenyl)-1H-benzo[d]imidazole-5-carbohydrazide]: the inhibition at 10 µM in the test on UACC-62 was over 100%; with SF-295, over 100%; in the test with OVCAR-4, over 100%; in the test on HL-60(TB), 82.9%; in the test on LOX IMVI, 98.7%; in the test with M14, over 100%. Moreover, the inhibition at 10 µM in the test on DU-145 is over 100%; in the test with CAKI-1 it was over 100%; against VEGFR-2, 62.9 ± 3.89%; in test [1] (setting [2]), over 100%; in test [1] (setting [3]), over 100%. Moreover, the GI50 in the test with UACC-62 is 2530 nM; with SF-295, 1260 nM; in the test on OVCAR-4, 2240 nM; in the test on HL-60(TB), 2.09 µM; in the test with LOX IMVI, 2230 nM; with M14 it was 3.65 µM. Moreover, the GI50 in the test on DU-145 amounted to 2.33 µM; in the test with CAKI-1 it was 1780 nM; in test [1] it was 2.98 µM.

For the molecule `COc1ccc(-c2nc3cc(C(=O)NN=Cc4cccc(O)c4)ccc3[nH]2)cc1` [8i, N'-(3-Hydroxybenzylidene)-2-(4-methoxyphenyl)-1H-benzo[d]imidazole-5-carbohydrazide], the inhibition at 10 µM came out at 50.8% in the test with UACC-62; 22% in the test with SF-295; 27.1% with OVCAR-4; 55.1% in the test with HL-60(TB); 26.1% with LOX IMVI; 39.1% with M14. Besides, the inhibition at 10 µM with DU-145 was 14%; in the test on CAKI-1 it was 5.16%; against VEGFR-2, 45.2 ± 2.22%; in [1] (setting [2]), 33.1%; in [1] (setting [3]), 33.1%.

`COc1ccc(-c2nc3cc(C(=O)NN=Cc4cccc(OC)c4)ccc3[nH]2)cc1` [8j, N'-(3-Methoxybenzylidene)-2-(4-methoxyphenyl)-1H-benzo[d]imidazole-5-carbohydrazide]: the inhibition at 10 µM with UACC-62 was 58.9%; in the test with SF-295, 167%; in the test on OVCAR-4, over 100%; with HL-60(TB), 30.4%; in the test on LOX IMVI it was over 100%; in the test on M14 it was 70.4%. Besides, the inhibition at 10 µM with DU-145 is over 100%; in the test with CAKI-1 it was 85.3%; against VEGFR-2, 15.7 ± 1.41%; in test [1] (setting [2]), 100%; in test [1] (setting [3]), over 100%. Moreover, the GI50 was determined as 6500 nM in the test on UACC-62; 2930 nM with SF-295; 2010 nM with OVCAR-4; 36.5 µM in the test on HL-60(TB); 1980 nM in the test on LOX IMVI; 3.42 µM in the test on M14. For the same molecule, the GI50 in the test with DU-145 stood at 3.28 µM; with CAKI-1, 2810 nM; in test [1], 5.24 µM.

Regarding `COc1ccc(-c2nc3cc(C(=O)NN=Cc4cccc(OC)c4O)ccc3[nH]2)cc1` [8k, N'-(2-Hydroxy-3-methoxybenzylidene)-2-(4-methoxyphenyl)-1H-benzo[d]imidazole-5-carbohydrazide], the inhibition at 10 µM in the test on UACC-62 is 98%; in the test on SF-295, 96.4%; in the test on OVCAR-4, 86%; with HL-60(TB) it was over 100%; in the test with LOX IMVI it was over 100%; with M14, 91%. Further, the inhibition at 10 µM was 85.1% in the test with DU-145; 84.6% with CAKI-1; 69.5 ± 4.37% against VEGFR-2; over 100% in test [1] (setting [2]); over 100% in [1] (setting [3]). Besides, the GI50 with UACC-62 was 2780 nM; with SF-295 it was 2480 nM; in the test with OVCAR-4 it was 3260 nM; in the test with HL-60(TB), 7.66 µM; in the test on LOX IMVI it was 2340 nM; in the test with M14, 2.81 µM. Also, the GI50 was determined as 5.06 µM in the test on DU-145, 3640 nM in the test on CAKI-1 and 7.7 µM in test [1].

`COc1ccc(-c2nc3cc(C(=O)NN=Cc4ccc(OC)c(O)c4)ccc3[nH]2)cc1` [8l, N'-(3-Hydroxy-4-methoxybenzylidene)-2-(4-methoxyphenyl)-1H-benzo[d]imidazole-5-carbohydrazide]: the inhibition at 10 µM with UACC-62 was 47.6%; with SF-295, 51%; in the test on OVCAR-4, 9.88%; in the test on HL-60(TB), 52.2%; in the test on LOX IMVI, 37.9%; with M14 it was 63.5%. Also, the inhibition at 10 µM in the test on DU-145 is 27.9%; in the test with CAKI-1, under 5%; on VEGFR-2, 50.6 ± 5.29%; in test [1] (setting [2]), 34.4%; in test [1] (setting [3]) it was 34.4%.

As to `COc1ccc(-c2nc3cc(C(=O)NN=Cc4cc(OC)ccc4OC)ccc3[nH]2)cc1` [8m, N'-(2,5-Dimethoxybenzylidene)-2-(4-methoxyphenyl)-1H-benzo[d]imidazole-5-carbohydrazide], the inhibition at 10 µM in the test on UACC-62 was 6.39%; in the test on SF-295 it was 19.9%; with OVCAR-4 it was 8.31%; with HL-60(TB), 18.8%; in the test with LOX IMVI, 18.8%; in the test on M14, under 5%. Further, the inhibition at 10 µM in the test on DU-145 was under 5%; in the test with CAKI-1, under 5%; at VEGFR-2, 6.67 ± 0.08%; in test [1] (setting [2]) it was 10.9%; in test [1] (setting [3]), 10.9%.

These data come from paper PMC10893631, “Receptor-based pharmacophore modeling, molecular docking, synthesis and biological evaluation of novel VEGFR-2, FGFR-1, and BRAF multi-kinase inhibitors” (BMC Chemistry, 2024).
